From US20260159474A1, “Aminoindane Compounds and Compositions and Methods of Their Therapeutic Use” (Solvonis Therapeutics Ireland Holdings Limited, priority 2021, published 2026)

Assay: Plasma protein binding by equilibrium dialysis, human plasma
Format: in vitro ADME
Details: fraction unbound, 0.5 μM
Description: Methods: Plasma protein binding and blood tissue binding of test items (0.5 μM) was determined using biological samples from male Sprague Dawley (SD) rats and humans. […] Dexamethasone was used as a control compound for lung tissue binding. Various biological samples were spiked with test compounds according to the methods that follow.
Preparation of plasma or blood samples: An appropriate amount of test compound was dissolved in DMSO to yield a 10 mM solution. Further dilutions, to obtain 50 μM working solutions (WS), were then prepared using 50% acetonitrile in Milli-Q water. These 100×WS were used to spike plasma or blood to obtain a final concentration of 0.5 μM. From this initial spiking solution, control samples (n=3), referred to as T=0, were immediately extracted and used to calculate the recovery of the test item.
An equilibrium dialysis method was performed to determine protein binding in the various biological samples described herein. Materials were prepared and methods were in accordance with the following procedures.
Membranes were prepared for use in the equilibrium dialysis experiment. by soaking in deionized water for at least 60 minutes. After this period, 20% of pure ethanol was added, and the membranes were left in this solution for at least 20 minutes. The membranes were then rinsed in Milli-Q water prior to use.
To initiate the experiment, 150 μL of test item-free buffer (isotonic phosphate buffer for plasma and blood, artificial CSF buffer for brain or HBSS buffer for lung) was dispensed on one half-well of a 96-well dialyzer apparatus (HTDialysis LLC), and 150 μL of spiked matrix (plasma, blood, brain or lung) was loaded on the other half-well. Alternative volumes may be used according to the operating instructions of HTDialysis.
Dialysis buffer was prepared by dissolving Na2HPO4 8.69 g, KH2PO4 1.90 g, and NaCl 4.11 g in […] of MilliQ water, and adjusting the pH to 7.4 with H3PO4. At the end of the equilibration period (device is sealed and incubated under shaking for 5 hours at 37° C.), 50 μL of dialysed matrix will be added to 50 μL of corresponding test item free dialysed buffer, and vice versa for buffer, such that the volume of buffer to matrix will be the same. Samples were extracted by protein precipitation with 300 μL of acetonitrile containing rolipram (for positive ionization mode) or diclofenac (for negative ionization mode) as internal standard and centrifuged for 10 minutes at 2800 rpm. Supernatants were collected (100 μL), diluted with 18% ACN in Milli Q water (200 μL).
Samples were then injected onto an HPLC MS/MS or UPLC MS/MS system. In order to control the integrity of the membrane after the dialysis process, the presence of protein was assessed in the buffer compartment. 5 μL of dialysed buffer will be added with 250 μL of Bio-Rad protein assay reagent (Bio-Rad) diluted 1:5 with Milli-Q water. A change in color from brown to a brilliant blue indicates protein contamination. Contaminated samples were excluded from all calculations.
Samples were analyzed in a LC-MS/MS system using an analytical method to monitor the compound to internal standard peak area ratios as representative of the compound concentrations. Alternatively, samples were analyzed by RapidFire.
Protein binding in plasma, blood, brain, and lung tissue samples were determined with the following formula: Afu=Buffer/x, wherein “x” may be plasma, blood, brain, or lung, and “Afu” is the apparent fraction unbound, and the other variables refer to the analyte/internal standard ratio determined in their specific compartment (buffer, plasma, blood, brain homogenate, and lung homogenate); Fucr-(1/D)/[(1/Afu)-1+(1/D)], wherein fucr is the fraction unbound corrected, D is the matrix dilution factor (D=1 for plasma, 2 for blood, 3 for brain, 7 for lung). % Binding=(1−fucr)×100 and % Unbound=100—% Bound. See, e.g., Kalvass et al., Drug Metab Dispos., 2018; 46(4):458-469. […]

Row | Compound | Human Plasma (Fu %)
1 | CNC(C)Cc1ccc2c(c1)OCO2 (centres unmarked) [MDMA] | >50%
2 | COC(=O)c1ccc2c(c1)CC(N)C2 (centres unmarked) [CMP-405, 2-aminoindane-5-methylcarboxylate] | high binding in plasma specimens and Low
3 | COC(=O)c1cc2c(cc1OC)CC(N)C2 (centres unmarked) [CMP-401] | >50%
4 | COC(=O)COc1ccc2c(c1)CC(N)C2 (centres unmarked) [CMP-402] | >50%

Same assay, conditions: human, plasma, pH 7.4, read-out: Human Plasma (Fu %)

Row | Compound | fraction unbound at 5 h, 0.5 μM
5 | COc1ccc2c(c1)CC(N)C2 (centres unmarked) [MEAI, 5-methoxy-2-aminoindane] | > 0.5
6 | COc1cc2c(cc1C)CC(N)C2 (centres unmarked) [MMAI, 5-methoxy-6-methyl-2-aminoindane] | > 0.5
7 | COC(=O)c1cc2c(cc1OC)CC(N)C2 (centres unmarked) [CMP-401] | > 0.5
8 | COC(=O)COc1ccc2c(c1)CC(N)C2 (centres unmarked) [CMP-402] | > 0.5
